Source: PubChem BioAssay (NCI)
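Protocol summary: plate cells (96-well), add compound at 5 concentrations, incubate 48 h, interpolate endpoints linearly. The concentration for 50% growth inhibition is given as GI50. TGI: total growth inhibition.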 *1 amine or outer side, *2 acyl side, *3 side chain or, on linkers, in order; H or OH if unused. Where a SMILES comes first, the peptide text is derived from it. Bridges are numbered along the chain shown (N, C = ends). [ ]: non-standard residue; d: D form. The star is where a group is joined. Phe(3,5-F2) = N[C@@H](Cc1cc(F)cc(F)c1)C(=O)O; Pro(4R-Me) = C[C@H]1CN[C@H](C(=O)O)C1; aThr = C[C@H](O)[C@H](N)C(=O)O; Pip = O=C(O)[C@@H]1CCCCN1; X10 = Fc1cc(C2CC2)ccc1N*; CO = O=C([*:1])[*:2]

Legend:
Assay in all cases: DTP human tumour cell line panel, 48 h
HOP-92 NSCLC = system: HOP-92 NSCLC
MDA-MB-231 breast = system: MDA-MB-231 breast
RPMI-8226 leukemia = system: RPMI-8226 leukemia
ACHN renal = system: ACHN renal
UO-31 renal = system: UO-31 renal
SK-MEL-5 melanoma = system: SK-MEL-5 melanoma
KM12 colon = system: KM12 colon
U251 CNS = system: U251 CNS
SNB-19 CNS = system: SNB-19 CNS
TK-10 renal = system: TK-10 renal

Compound	GI50 (HOP-92 NSCLC) [µM]	TGI (HOP-92 NSCLC) [µM]	GI50 (MDA-MB-231 breast) [µM]	TGI (MDA-MB-231 breast) [µM]	GI50 (RPMI-8226 leukemia) [µM]	TGI (RPMI-8226 leukemia) [µM]	GI50 (ACHN renal) [µM]	TGI (ACHN renal) [µM]	GI50 (UO-31 renal) [µM]	TGI (UO-31 renal) [µM]	GI50 (SK-MEL-5 melanoma) [µM]	TGI (SK-MEL-5 melanoma) [µM]	GI50 (KM12 colon) [µM]	TGI (KM12 colon) [µM]	GI50 (U251 CNS) [µM]	TGI (U251 CNS) [µM]	GI50 (SNB-19 CNS) [µM]	TGI (SNB-19 CNS) [µM]	GI50 (TK-10 renal) [µM]	TGI (TK-10 renal) [µM]
CCOC1Oc2ccccc2C(=O)/C1=C/Nc1ccc(C(C)=O)cc1 (stereo unspecified)	25.6	> 100	20	47.8	15.9	68.3	18.6	44	27.9	> 100	19.1	43	19.1	50.2	23.9	67.5	42.2	> 100	–	–
COC(=O)/C=C1\S/C(=N\NC(=O)c2cc3ccc2/C=C\c2ccc(cc2)/C=C\3)N(c2ccccc2)C1=O	1.91	9.14	2.63	7.46	2.15	5.69	1.78	3.29	1.53	3.08	7.56	> 100	2.03	4.15	1.89	4	1.95	4.25	2.03	5.6
OCCN(CCO)c1ncnc2c1ncn2Cc1ccc(CCl)cc1	16.4	31.7	18	35.5	17.2	> 100	14.9	28.5	14.9	31	10.9	23.3	14.3	29.2	15.7	29.8	19.9	41.2	17.1	33.4
CC(=O)OC1OC([C@@H]2c3cccc(O)c3C(=O)c3c(O)cc(C)cc32)C(O)C(O)C1O (stereo partly specified)	0.0233	0.0717	< 0.0153	0.0377	< 0.0153	< 0.0292	0.0319	0.282	0.0419	1.11	< 0.0119	0.0294	< 0.01	–	< 0.0152	0.257	0.392	21.4	0.0286	0.26
Nc1nc(-n2c(-c3ccccc3)nc3c(Br)cc(Br)cc3c2=O)nnc1-c1cccc(Cl)c1Cl	38.5	> 100	4.22	18.3	6.05	> 100	12.2	40.2	40.2	> 100	4.65	28.3	3.29	63.4	6.87	27.1	29.9	> 100	3.96	20.8
CN(C)c1ccc(/C=C\C2=[N+](C)c3ccccc3C2(C)C)cc1	0.89	> 22.8	2.12	18.8	0.176	> 53.5	1.75	> 36.7	3.74	> 100	0.715	3	0.369	4.46	0.233	17.4	0.775	38.1	1.25	> 52.4
COc1cnc2c(c1)C(=O)c1c-2n(CCCN2CCOCC2)c(=O)c2cc(F)ccc12	0.858	6.86	1.6	> 100	0.135	0.804	0.177	0.6	–	–	0.169	0.446	0.316	> 100	0.0936	0.563	0.264	7	0.489	16.3
COc1ccc(CC2c3cc4c(cc3CCN2C)OCO4)c(C=O)c1OC (stereo unspecified)	–	> 100	–	> 100	–	> 100	–	> 100	–	> 100	–	> 100	–	> 100	–	> 100	–	> 100	–	> 100
O=[N+]([O-])c1ccc2c(c1)/C(=N/N=C1c3ccccc3Cc3ccccc31)c1cc([N+](=O)[O-])cc([N+](=O)[O-])c1-2	–	8.61	–	6.42	–	> 100	–	8.79	–	4.41	–	15	–	6.34	–	10.7	–	23.3	–	11.5
Nc1ccccc1C#C/C=C\C#Cc1ccccc1OC(F)(F)F	9.57	26.4	5.34	24.7	3.55	18	9.15	50.4	4.63	22.8	4	15	4.78	27.3	5.44	22.2	2.55	9.72	10.6	43.7
C[C@@H]1C[C@H]2C(=O)O[C@@H](C)[C@H](NC(=O)[C@H](Cc3cc(F)cc(F)c3)NC(=O)Nc3ccc(C4CC4)cc3F)C(=O)N3CCC[C@H]3C(=O)N3CCCC[C@H]3C(=O)N[C@@H](C)C(=O)N2C1 ({X10-CO}-[Phe(3,5-F2)][aThr]P[Pip]A[Pro(4R-Me)]; ester 2-C)	0.0452	4.76	0.0402	1.3	0.0287	0.878	0.0984	8.12	0.161	7.61	0.0461	1.24	0.0909	10.3	0.0479	> 46	0.0404	> 46.9	0.343	> 35.1
C[N+](C)(C)CC(=O)N/N=C(/CC(=O)CC(C1=C(O)c2ccccc2OC1)c1ccccc1)C(=O)Nc1cccc(Cl)c1 (stereo unspecified)	–	> 100	–	> 100	–	> 100	–	> 100	–	> 100	–	> 100	–	> 100	–	> 100	–	–	–	> 100
CC1CCc2nc[nH]c(=O)c21 (stereo unspecified)	> 100	> 100	> 100	> 100	> 100	> 100	> 100	> 100	> 100	> 100	> 100	> 100	> 100	> 100	–	–	> 100	> 100	> 100	> 100
COc1cc2c(c3oc4c(O)cccc4c(=O)c13)CC(C(C)(O)CO)O2 (stereo unspecified)	–	> 100	–	> 100	–	> 100	–	> 100	–	> 100	–	> 100	–	–	–	> 100	–	> 100	–	> 100
